Measured values published in patent US20230128688A1, “DIRECTED CONJUGATION TECHNOLOGIES” (KLEO PHARMACEUTICALS, INC., priority 2019, published 2023).

System: daratumumab
Assay: Absorbance based DAR analysis of FITC conjugation to antibody
Type: biochemical
Procedure: In some embodiments, reaction partners, e.g., compounds of formula R-I or salts thereof ere dissolved in DMSO to 5 mM stock solution.
In some embodiments, reactions are set up with 300 micrograms of antibody. In some embodiments, various conditions, including various buffers, reagent equivalents, reaction time, reaction temperature and reaction concentrations can be utilized.
As an example, one reaction is 300 microliter reaction with 1 mg/mL of antibody in PBS. Peptide I-45 (1 microliter of 5 mM stock in DMSO, 2.5 molar equivalents relative to daratumumab) was diluted in 284 microliters of PBS buffer (10 mM phosphate, 150 mM sodium chloride, pH 7.4), then 15 microliters of daratumumab (20 mg/mL stock) was added to the reaction mixture followed by incubation at room temperature in the dark. After 4 h reaction buffer was exchanged using Amicon Ultra centrifuge filter (30 KDa MWCO, 0.5 mL volume). First, glycine buffer (100 mM, pH 2.1) was used for buffer exchange to ensure dissociation of target binding moieties after reaction. Then, phosphate buffer saline (pH 7.4) was used for further buffer exchange and storage.
In another example, a reaction is 300 microliter reaction with 1 mg/mL of antibody in borate buffer. Peptide I-44 (1.2 microliter of 5 mM stock in DMSO, 3.0 molar equivalents relative to daratumumab) was diluted in 284 microliters of Borate buffer (100 mM borate, pH 8.3), then 15 microliters of daratumumab (20 mg/mL stock) was added to the reaction mixture followed by incubation at room temperature in the dark. After 20 h reaction buffer was exchanged using Amicon Ultra centrifuge filter (30 KDa MWCO, 0.5 mL volume). First, glycine buffer (100 mM, pH 2.1) was used for buffer exchange to ensure dissociation of target binding moieties after reaction. Then, phosphate buffer saline (10 mM phosphate, 150 mM sodium chloride, pH 7.4) was used for further buffer exchange and storage.
In some embodiments, a useful technology is absorbance based DAR analysis. DAR (ratio of moieties of interest and target agent moieties (e.g., antibody agent moieties) was calculated for various antibody conjugates, e.g., in various reagent screening/assessment methods. Various agents comprising target binding moieties were assessed for conjugation efficiency as reaction partners with targets, e.g. protein agents such as antibody agents, compared to reagents with the same reactive groups but without target binding moieties. In various ratio determination ‘Drug’/moiety of interest is fluorescein isothiocyanate (FITC) dye conjugated to target agents, e.g., antibody agents. DAR molar ratio is defined as a ratio of moles of drug/moiety of interest to moles of target agent/antibody. Molarity is calculated from absorbance of FITC (A485) and antibody (A280) of conjugated product, and extinction coefficients of FITC and antibody using Beer-Lambert law. Correction coefficient 0.35 was used to correct for absorbance of FITC at 280 nm. Biotek Synergy H1 microplate reader and Take3 microvolume plate were used for absorbance measurements. Concentration of antibody was at least 3 mg/mL for optimal signal-to-noise in the readings. Certain target binding moieties that can provide higher DAR compared to equivalent controls (absence of target binding moieties) were selected as hits for further analysis. Certain assessment data were provided below as examples.

[1] = 10 M eq reagent, Bicarbonate buffer pH 8.3, 2 h, 37 C, Drug = FITC
[2] = 2.5 M eq reagent, phosphate buffer saline pH 7.4, 4 h, 25 C, Drug = FITC
[3] = 30 M eq reagent, borate buffer pH 8.3, 20 h, 37 C, Drug = FITC
[4] = 5 M eq reagent, bicarbonate buffer pH 8.3, 20 h, 37 C, Drug = FITC
[5] = 10 M eq reagent, Bicarbonate buffer pH 8.3, 20 h, 25 C, Drug = FITC

SMILES: COc1ccc(NC(=O)c2cn3ccsc3n2)cc1C(=O)NCCCC(=O)NCc1cc(F)c(OC(=O)CCOCCOCCOCCOCCOCCOCCNC(=S)Nc2ccc3c(c2)C(=O)OC32c3ccc(O)cc3Oc3cc(O)ccc32)c(F)c1 [Compound I-1]
- DAR [1]: 1.00

SMILES: CCCCNc1nc(NCCOCCOCCC(=O)NCc2cc(F)c(OC(=O)CCOCCOCCOCCOCCOCCOCCNC(=S)Nc3ccc4c(c3)C(=O)OC43c4ccc(O)cc4Oc4cc(O)ccc43)c(F)c2)nc(NCc2cccc(F)c2)n1 [Compound I-2]
- DAR [1]: 1.76

SMILES: Cc1nc2cc(C(=O)Nc3nc(-c4ccccn4)cs3)ccc2n1CCCC(=O)NCc1cc(F)c(OC(=O)CCOCCOCCOCCOCCOCCOCCNC(=S)Nc2ccc3c(c2)C(=O)OC32c3ccc(O)cc3Oc3cc(O)ccc32)c(F)c1 [Compound I-3]
- DAR [1]: 1.39

SMILES: CC(=O)NCc1ccc(OC(=O)CCOCCOCCOCCOCCOCCOCCNC(=S)Nc2ccc3c(c2)C(=O)OC32c3ccc(O)cc3Oc3cc(O)ccc32)c(F)c1 [Compound I-10]
- DAR [2]: 0.08
- DAR (2.5 M eq, 25 C, 4 h, PBS pH 7.4): 0.08
- DAR (2.5 M eq, 25 C, 20 h, Borate pH 8.2): 0.21
- DAR (2.5 M eq, 25 C, 20 h, PBS pH 7.4): 0.07
- DAR (2.5 M eq, 25 C, 20 h, PBS pH 7.8): 0.15
- DAR (2.5 M eq, 25 C, 20 h, PBS pH 8.0): 0.06
- DAR (2.5 M eq, 25 C, 20 h, PBS pH 8.2): 0.03
- DAR (2.5 M eq, 30 C, 20 h, PBS pH 7.4): 0.05
- DAR (2.5 M eq, 37 C, 20 h, PBS pH 7.4): 0.17
- DAR [1]: 0.14
- DAR [3]: 0.98

SMILES: CC(=O)NCc1ccc(OC(=O)CCOCCOCCOCCOCCOCCOCCNC(=S)Nc2ccc3c(c2)C(=O)OC32c3ccc(O)cc3Oc3cc(O)ccc32)cc1 [Compound I-11]
- DAR [2]: 0.05
- DAR [1]: 0.14
- DAR [3]: 0.14

SMILES: Cc1nc2cc(C(=O)Nc3nc(-c4ccccn4)cs3)ccc2n1CCCC(=O)NCc1ccc(OC(=O)CCOCCOCCOCCOCCOCCOCCNC(=O)Nc2ccc3c(c2)C(=O)OC32c3ccc(O)cc3Oc3cc(O)ccc32)c(F)c1 [Compound I-12]
- DAR [4]: 1.44

SMILES: Cc1nc2cc(C(=O)Nc3nc(-c4ccccn4)cs3)ccc2n1CCCC(=O)NCc1ccc(OC(=O)CCOCCOCCOCCOCCOCCOCCNC(=S)Nc2ccc3c(c2)C(=O)OC32c3ccc(O)cc3Oc3cc(O)ccc32)cc1 [Compound I-13]
- DAR [4]: 0.09

SMILES: CCCCNc1nc(NCCOCCOCCC(=O)NCc2ccc(OC(=O)CCOCCOCCOCCOCCOCCOCCNC(=S)Nc3ccc4c(c3)C(=O)OC43c4ccc(O)cc4Oc4cc(O)ccc43)c(F)c2)nc(NCc2cccc(F)c2)n1 [Compound I-14]
- DAR [1]: 0.29

SMILES: CCCCNc1nc(NCCOCCOCCC(=O)NCc2ccc(OC(=O)CCOCCOCCOCCOCCOCCOCCNC(=S)Nc3ccc4c(c3)C(=O)OC43c4ccc(O)cc4Oc4cc(O)ccc43)cc2)nc(NCc2cccc(F)c2)n1 [Compound I-15]
- DAR [1]: 0.74

SMILES: O=C(CCCc1c[nH]c2ccccc12)NCc1cc(F)c(OC(=O)CCOCCOCCOCCOCCOCCOCCNC(=S)Nc2ccc3c(c2)C(=O)OC32c3ccc(O)cc3Oc3cc(O)ccc32)c(F)c1 [Compound I-16]
- DAR [4]: 0.30

SMILES: O=C(CCCc1c[nH]c2ccccc12)NCc1ccc(OC(=O)CCOCCOCCOCCOCCOCCOCCNC(=S)Nc2ccc3c(c2)C(=O)OC32c3ccc(O)cc3Oc3cc(O)ccc32)c(F)c1 [Compound I-17]
- DAR [4]: 0.37

SMILES: CCNC(=O)c1ccc(OC(=O)CCOCCOCCOCCOCCOCCOCCNC(=S)Nc2ccc3c(c2)C(=O)OC32c3ccc(O)cc3Oc3cc(O)ccc32)cc1 [Compound I-19]
- DAR [2]: 0.20

SMILES: COc1ccc(NC(=O)c2cn3ccsc3n2)cc1C(=O)NCCCC(=O)N[C@@H](CCC(=O)N(C)OC)C(=O)NCCOCCOCCOCCOCCOCCOCCOCCOCCN(CCCS(=O)(=O)O)C(=O)OC[C@H]1[C@@H]2CCc3c(nnn3CCOCCOCCOCCOCCNC(=S)Nc3ccc4c(c3)C(=O)OC43c4ccc(O)cc4Oc4cc(O)ccc43)CC[C@@H]21 [Compound I-20]
- DAR [5]: 0.72

SMILES: N=C(N)NCCC[C@H](NC(=O)CCOCCOCCOCCOCCOCCOCCOCCOCCNC(=O)c1ccc(OC(=O)CCOCCOCCOCCOCCOCCOCCNC(=S)Nc2ccc3c(c2)C(=O)OC32c3ccc(O)cc3Oc3cc(O)ccc32)cc1)C(=O)N[C@@H](CCCNC(=N)N)C(=O)NCC(=O)N[C@@H](Cc1c[nH]c2ccccc12)C(=O)O [Compound I-21]
- DAR [5]: 0.18
